# Like-named read-outs stand apart in the source and are kept apart here.
# Tests used:
# EAEC strain 042 = test: Quantitative biofilm assay, EAEC; format: cell-based, Escherichia coli
# Protocol: A quantitative biofilm assay was used to determine the effect of NTZ on biofilm formation (41). Strain 042 was grown overnight at 37° C. with shaking and inoculated 1:100 in 200 μl culture medium in Costar 96-well, flat-bottom, polystyrene microtiter plates containing appropriate concentrations of NTZ. Plates were incubated statically at 37° C. in a humidified incubator. At 24 h, bacterial growth was measured by either transferring […] aliquots to another microtiter plate to determine turbidity or by diluting 100 μl aliquots 1:100 in 9.9 ml PBS for quantitative plate counts on LB medium. Bacterial counts in triplicate are reported as cfu/ml. Biofilm was visualized following staining with 0.5% crystal violet (41) and the absorbance was read at 570 nm using a microplate reader (Molecular Dynamics). All experiments were in triplicate and reported as mean and standard deviation.
# Assays were initially performed with and without 25 μg/ml NTZ using five different growth media: DMEM, DMEM with 0.4% glucose, LB, LB with 0.4% glucose, and our chemically defined medium containing 1% glucose. E. coli DH5αt served as a negative control for biofilm formation. Assays were then run with increasing concentrations of NTZ (0, 5, 10, 15, 20, 25 μg/ml) both in the chemically defined medium and in DMEM with 0.4% glucose. […]
# Solubility in water = format: physicochemical; settings: water
# [1] = system: S. haemolyticus strain 33208; test: Biofilm determination, crystal violet, S. haemolyticus; format: cell-based; settings: Staphylococcus haemolyticus; S. haemolyticus strain 33208, crystal violet; read-out: IC50 biofilm production
# Protocol: Staphylococcal strains were cultured overnight in TSB at 37° C. with shaking, diluted in fresh medium to an OD600 of 0.01 and 200 W was dispensed into sterile flat bottom polystyrene 96 well microtiter plates (Costar 3596, Corning Inc.). […] Each compound and dilution was tested in triplicate. The plates were incubated overnight at 37° C. in a humidified incubator, without shaking and both growth and biofilm accumulation were determined at 16 h.
# Following recording of turbidities, the culture medium was aspirated and the wells were washed three times with distilled water, blotted on paper towels, and fixed with 75% ethanol for 10 minutes.
# To visualize biofilm material, 0.5% crystal violet was added to each well and after 5 minutes was removed and the wells washed three times with distilled water. Plates were read using a microplate reader at a wavelength of 570 nm. The dye was then extracted by adding 200 W of 95% ethanol, and the absorbance was read again at 570 nm. All assays were performed in triplicate and the mean and standard deviation determined. Generally, the ethanol-solubilized crystal violet was more reliable and these determinations are reported throughout.
# [2] = system: PFOR (pyruvate ferredoxin oxidoreductase); test: Direct PFOR enzyme assay; format: biochemical
# [3] = system: EAEC JM221 (AAF/I fimbriae); test: Hemagglutination of sheep erythrocytes, EAEC JM221; format: cell-based, Escherichia coli; settings: EAEC JM221 grown in MinA-G with 20 μg/ml NTZ; further: key: +++ = strong hemagglutination reaction; + weak; − no hemagglutination
# Protocol: (§1) HA assays were performed in 96-well microplates as described in (1). Bacteria grown over night without shaking ([…]) were suspended in PBS and diluted to OD660 of […] was mixed with an equal volume of 3% (vol/vol) sheep erythrocyte suspension containing 1% mannose, except when type I fimbriae producing strains were assayed. In the latter, bacteria were grown statically in LB medium (with and without NTZ) for 48 h and HA was determined with guinea pig erythrocytes. HA reactions were incubated at 4° C. for […] HA was determined visually against controls receiving no NTZ. All assays were prepared in triplicate and repeated twice.
# [4] = system: S. epidermidis strain 9142; test: Effect of zinc on the action of NTZ (biofilm and MIC); format: cell-based, Staphylococcus epidermidis; settings: zinc 20 μM, read at 8 h
# Protocol: […] As a control, ZnCl2 was added to untreated bacteria. Additional controls included testing of 10 μM CaCl2 and MgCl2 in the same format. The inhibitory effect of EDTA on biofilm production and its reversibility by Zn^2+ was also assessed as described for NTZ.
# E. coli = test: MIC testing by broth dilution, E. coli plank; format: cell-based, Escherichia coli
# Method in brief: (§2)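 Media: LB (E. coli), Trypticase Soy (S. epidermidis), BHI (C. jejuni); plank cells. C. difficile on Wilkins Chalgrin agar, anaerobic Kirby-Bauer disks, zone vs NTZ zone ratio.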
# E. coli biofilm = E. coli biofilm assay (activity tables); format: cell-based, Escherichia coli
# Method in brief: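 After 24 h static culture at 37 °C in wells containing NTZ, strain 042 (1:100 inoculum) biofilm was quantified by 0.5% crystal violet absorbance at 570 nm. Planktonic growth was taken from turbidity or LB plate counts as cfu/ml; all runs triplicate, reported as mean and SD.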
# C. difficile = test: Disk diffusion (Kirby Bower), C. difficile; format: cell-based, Clostridium difficile; settings: for Disk Diff (%) C. difficile: Nitazoxanide = 100
# Method in brief: as §2
# [5] = system: EAEC 042 (AAF/II fimbriae); test: Hemagglutination of sheep erythrocytes, EAEC 042; format: cell-based, Escherichia coli; settings: EAEC 042 grown in MinA-G with 20 μg/ml NTZ; further: key: +++ = strong hemagglutination reaction; + weak; − no hemagglutination
# Protocol: as §1
structure (smiles),measurement,setting,value
"CC(=O)Oc1ccccc1C(=O)Nc1ncc([N+](=O)[O-])s1 [Nitazoxanide, 2-(acetyloxy)-N-(5-nitro-2-thiazolyl)benzamide, reference compound]",Inhibition of biofilm formation,"EAEC strain 042; EAEC 042, MinA-G, 20 μg/ml",almost complete inhibition
same,IC50,"EAEC strain 042; Escherichia coli, EAEC 042, DMEM and MinA-G media, read-out: IC50 biofilm production",~12 µg/mL
same,solubility,Solubility in water,< 32 µg/mL
same,IC50,[1],2.5 µg/mL
same,PFOR inhibition relative to nitazoxanide (=100),[2],100%
same,PFOR inhibition relative to nitazoxanide (=100),"[2]; * biphasic initial inhibition followed by uninhibited rate, ** caused some precipitant in extract",100%
same,PFOR inhibition relative to nitazoxanide (=100),[2]; Furan analogues table,100%
same,PFOR inhibition relative to nitazoxanide (=100),[2]; Thiophene analogues table,100%
same,"HA (sheep erythrocytes), bacterial OD660 0.5",[3],−
same,"HA (sheep erythrocytes), bacterial OD660 1.0",[3],−
same,Effect of Zn2+ on the growth inhibitory action (MIC),[4],no effect
same,MIC,"E. coli; Escherichia coli, broth dilution, LB medium, 24 h, read-out: MIC (μM) E. coli Plank",104 µM
same,MIC,"E. coli; Escherichia coli, planktonic, Furan analogues table, read-out: MIC E. coli Plank",104 µM
same,MIC,"E. coli; planktonic, 2-amino-3,5-dinitrothiophene analogues table, read-out: MIC E. coli Plank",104.1 µM
same,MIC,"E. coli; planktonic, Thiophene analogues table, read-out: MIC E. coli Plank",104.1 µM
same,MIC,"E. coli biofilm; Escherichia coli, biofilm, Furan analogues table, read-out: MIC E. coli Biofilm",26 µM
same,MIC,"E. coli biofilm; Escherichia coli, read-out: MIC (μM) E. coli Biofilm",26 µM
same,MIC,"E. coli biofilm; biofilm, 2-amino-3,5-dinitrothiophene analogues table, read-out: MIC E. coli Biofilm",26.0 µM
same,MIC,"E. coli biofilm; biofilm, Thiophene analogues table, read-out: MIC E. coli Biofilm",26.0 µM
same,Disk Diff (%) C. difficile,"C. difficile; 2-amino-3,5-dinitrothiophene analogues table",100%
same,Disk Diff (%) C. difficile,C. difficile; Furan analogues table,100%
same,Disk Diff (%) C. difficile,C. difficile; Thiophene analogues table,100%
same,Disk Diffusion (%) C. difficile,C. difficile; zone of inhibited growth as relative ratio to the zone for NTZ,100%
same,"HA (sheep erythrocytes), bacterial OD660 0.5",[5],−
same,"HA (sheep erythrocytes), bacterial OD660 1.0",[5],−
same,"HA (sheep erythrocytes), bacterial OD660 1.5",[5],+
